From patent US20260325542A1, “CANCER TARGETING COMPLEX, AND COMPOSITION COMPRISING SAME FOR PREVENTING OR TREATING CANCER” (EWHA UNIVERSITY - INDUSTRY COLLABORATION FOUNDATION, priority 2023, published 2026)

Key:
cancer tissue = test: TUNEL analysis of excised cancer tissue; type: in vivo, mouse; conditions: cancer tissue excised after 15 days
Description: (§1) Cancer animal models were prepared by inoculating 1×10^6 4T1 cells into the left thigh of the mice, and raising them until the tumor volume reached 50-80 mm^3.
(§2) The control group was administered saline (10 mg/kg) once every 3 days for 15 days through the tail vein (total 4 administrations). The comparison group was administered ARV-771 (10 mg/kg) once every 3 days for 15 days through the tail vein (total 4 administrations). The example group was administered ECMal-PROTAC 10 mg/kg (wquiv. to ARV-771) of example 1 once every 3 days for 15 days through the tail vein (total 4 administrations).
The control group, the comparison group, and the example group were euthanized after 15 days, and major organs (heart, liver, lung, spleen, kidney) and cancer tissue were excised.
Furthermore, to analyze cancer cell apoptosis, TUNEL (terminal deoxynucleotidyl transferase dUTP nick end labeling) analysis was performed on cancer tissue excised from the control group, the comparison group, and the example group. Next, histological analysis was performed by H&E (hematoxylin & eosin) staining of the major organ tissues and cancer tissue of each excised group.

[1] = molecular target: T1, BSA (bovine serum albumin) (Bos taurus, UniProt P02769); test: In vitro binding of ECMal-PROTAC to albumin (thiol-maleimide reaction), RP-HPLC; conditions: BSA 200 μM, ECMal-PROTAC 140 μM, 1:1 volume ratio
T1 construct: free Cys34 thiol reacts with maleimide
Description: The binding rate of ECMal-PROTAC from example 1 and albumin was confirmed through RP-HPLC. Specifically, a BSA solution (200 μM) diluted with PBS was co-incubated by mixing it with an ECMal-PROTAC aqueous solution (140 μM) of example 1 at a 1:1 volume ratio. The culture was collected at incubation times of 0 minutes, 5 minutes, 30 minutes, and 60 minutes. It was quenched with mercaptoethanol, and HPLC spectra for each sample were acquired through concentration gradient of the eluent (ACN/H2O, 20/80 to 80/20 (v/v), 30 minutes).
To verify the albumin binding ability of the complex for cancer targeting (ECMal-PROTAC) of example 1, the mixture of BSA and the complex for cancer targeting (ECMal-PROTAC) was analyzed by LC-MS spectrum, and compared with the LC-MS spectrum of free BSA.
FIG. 4 is the HPLC spectrum of a mixture of BSA and the complex for cancer targeting (ECMal-PROTAC). According to this, it can be seen that BSA and the complex for cancer targeting (ECMal-PROTAC) rapidly bind through a thiol-maleimide click chemical reaction. To confirm the albumin binding ability of the complex for cancer targeting (ECMal-PROTAC) of example 1, bovine serum albumin (BSA), which has a structure similar to human serum albumin (HSA), was used for analysis.
At this time, the HPLC spectra were also analyzed for a co-incubation of ARV-771 (140 μM) and BSA solution (200 μM) mixed at a 1:1 volume ratio as a comparative example, and for the ECMal-PROTAC solution and BSA solution alone without any treatment of example 1.
From the HPLC results for the BSA and complex for cancer targeting (ECMal-PROTAC) mixture in Experimental Example 1 and the thiol-blocked BSA and complex for cancer targeting (ECMal-PROTAC) mixture in Experimental Example 2, the reduction in the HPLC peak area associated with the complex for cancer targeting (ECMal-PROTAC) was quantified.

[2] = test system: major organs and cancer tissue; test: Ex vivo biodistribution in major organs and cancer tissue; parameters: species or system mouse; conditions: 24 hours after i.v. 3 mg/kg
Description: (§3) 5-week-old female Balb/c and Balb/c nu/nu mice were purchased from NaraBio, Inc (Seoul, Republic of Korea). The mice underwent a 2-week acclimatization period before the example. The mice were raised under free-feeding conditions in a breeding room maintained at a temperature of 22±2° C. and humidity of 40-60% during the example. The light and dark cycle was regulated at 12-hour intervals. All examples were conducted in compliance with the relevant laws and institutional guidelines of the KIST Institutional Animal Care and Use Committee (IACUC; Approval No.: 2021-143).
Cancer animal models were prepared by inoculating 1×10^6 4T1 cells into the left thigh of the mice, and raising them until the tumor volume reached 150-200 mm3.
Samples were prepared as follows to analyze the in vivo therapeutic effect of the complex for cancer targeting (ECMal-PROTAC) of example 1. A Cy5.5-BSA solution (Cy5.5-Alb, Preparation Example 1, 200 μM) diluted with PBS was co-incubated by mixing it with an ECMal-PROTAC aqueous solution (140 μM) of example 1 at a 1:1 volume ratio. […]
To analyze the sample distribution in the excised cancer tissue, the excised major organs and cancer tissue were imaged with the IVIS Lumina Series III system (PerkinElmer, Waltham, MA, USA) and analyzed with Living Image software (PerkinElmer).

4T1 tumor = test: In vivo anticancer efficacy, tumor size in 4T1 cancer animal model; parameters: species or system mouse
Description: as §3, §1
For the preparation of the control group, the comparison group, and the example group, mice were randomly divided into groups of 5.
as §2
Tumor size and body weight were measured every two days for the control group, the comparison group, and the example group.

T1 sequence (P02769 25-607): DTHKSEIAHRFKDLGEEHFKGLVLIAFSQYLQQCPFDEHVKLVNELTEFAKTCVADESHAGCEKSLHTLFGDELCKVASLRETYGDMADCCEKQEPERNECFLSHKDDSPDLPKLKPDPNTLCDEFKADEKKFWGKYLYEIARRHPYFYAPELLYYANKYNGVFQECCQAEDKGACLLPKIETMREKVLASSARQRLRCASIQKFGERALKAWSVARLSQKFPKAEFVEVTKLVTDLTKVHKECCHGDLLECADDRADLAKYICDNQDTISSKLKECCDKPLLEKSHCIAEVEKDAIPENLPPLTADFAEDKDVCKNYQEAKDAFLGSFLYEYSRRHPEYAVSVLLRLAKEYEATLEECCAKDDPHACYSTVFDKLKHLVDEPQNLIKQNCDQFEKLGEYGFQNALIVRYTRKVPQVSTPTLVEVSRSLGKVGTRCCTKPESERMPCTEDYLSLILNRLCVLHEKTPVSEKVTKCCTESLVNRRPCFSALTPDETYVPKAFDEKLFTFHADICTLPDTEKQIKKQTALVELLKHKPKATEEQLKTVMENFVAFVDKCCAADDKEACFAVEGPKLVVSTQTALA

Cc1ncsc1-c1ccc([C@H](C)NC(=O)[C@@H]2C[C@@H](OC(=O)CCCCn3nnc4c3CCC3C(CC4)C3COC(=O)NCCOCCOCCNC(=O)CCN3C(=O)C=CC3=O)CN2C(=O)[C@@H](NC(=O)COCCCOCCNC(=O)C[C@@H]2N=C(c3ccc(Cl)cc3)c3c(sc(C)c3C)-n3c(C)nnc32)C(C)(C)C)cc1 (stereo partly drawn) [ECMal-PROTAC]
cancer cell apoptosis (TUNEL) (cancer tissue): cancer cell apoptosis was induced throughout the entire cancer tissue
completion of thiol-maleimide reaction with BSA within 3 minutes ([1]; within 3 minutes): more than 75%
completion of thiol-maleimide reaction with BSA within 10 minutes ([1]; within 10 minutes): 100%
elimination through the kidneys [2]: very low probability of kidney excretion
cancer size / increase in cancer size (4T1 tumor; 10 mg/kg equiv. to ARV-771, 15 days): significantly reduced
tumor volume, fold smaller than comparison group (4T1 tumor; 10 mg/kg equiv. to ARV-771, after 15 days, vs ARV-771 10 mg/kg): 5.3 times
tumor volume, fold smaller than control group (4T1 tumor; 10 mg/kg equiv. to ARV-771, after 15 days, vs saline): 6.1 times
tumor volume after 15 days (4T1 tumor; 10 mg/kg equiv. to ARV-771, tail vein, once every 3 days for 15 days): 176.13±81.62 mm3
tumor size (optical image) (4T1 tumor; excised after 15 days (FIG. 26)): much smaller tumor size than the other groups
